Here are results for four compounds from publication PMC8550792, “Evolution of kinase polypharmacology across HSP90 drug discovery” (Cell Chemical Biology, 2021).

SMILES strings stand for the structures.

Common to all, as to assay: biochemical
Common to all, as to type: biochemical

For assay [1], the target named is T1, 382 unique human kinases (Homo sapiens, UniProt Q13163).
T1 construct: purchased Reaction Biology (HotSpot contract assay)
T1 sequence (Q13163 1-448): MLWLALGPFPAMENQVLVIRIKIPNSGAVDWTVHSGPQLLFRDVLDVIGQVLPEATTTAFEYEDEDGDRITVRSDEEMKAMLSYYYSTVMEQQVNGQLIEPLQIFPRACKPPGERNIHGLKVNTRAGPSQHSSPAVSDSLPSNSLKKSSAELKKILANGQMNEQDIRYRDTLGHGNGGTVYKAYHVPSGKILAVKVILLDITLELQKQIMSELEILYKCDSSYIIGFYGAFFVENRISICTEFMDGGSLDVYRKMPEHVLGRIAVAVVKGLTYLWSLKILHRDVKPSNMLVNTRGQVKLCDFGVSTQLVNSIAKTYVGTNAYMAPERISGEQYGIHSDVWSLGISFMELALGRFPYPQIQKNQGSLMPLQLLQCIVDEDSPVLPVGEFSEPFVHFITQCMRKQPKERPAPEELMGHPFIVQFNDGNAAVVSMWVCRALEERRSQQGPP
The conditions noted are these: MEK5, 10 uM; for remaining activity at 10 µM: read-out: % Enzyme Activity (relative to DMSO controls).

Assay [2] deals with T2, 382 unique human kinases (Homo sapiens, UniProt Q9NZJ5).
T2 construct: purchased Reaction Biology (HotSpot contract assay)
T2 sequence (Q9NZJ5 30-1116): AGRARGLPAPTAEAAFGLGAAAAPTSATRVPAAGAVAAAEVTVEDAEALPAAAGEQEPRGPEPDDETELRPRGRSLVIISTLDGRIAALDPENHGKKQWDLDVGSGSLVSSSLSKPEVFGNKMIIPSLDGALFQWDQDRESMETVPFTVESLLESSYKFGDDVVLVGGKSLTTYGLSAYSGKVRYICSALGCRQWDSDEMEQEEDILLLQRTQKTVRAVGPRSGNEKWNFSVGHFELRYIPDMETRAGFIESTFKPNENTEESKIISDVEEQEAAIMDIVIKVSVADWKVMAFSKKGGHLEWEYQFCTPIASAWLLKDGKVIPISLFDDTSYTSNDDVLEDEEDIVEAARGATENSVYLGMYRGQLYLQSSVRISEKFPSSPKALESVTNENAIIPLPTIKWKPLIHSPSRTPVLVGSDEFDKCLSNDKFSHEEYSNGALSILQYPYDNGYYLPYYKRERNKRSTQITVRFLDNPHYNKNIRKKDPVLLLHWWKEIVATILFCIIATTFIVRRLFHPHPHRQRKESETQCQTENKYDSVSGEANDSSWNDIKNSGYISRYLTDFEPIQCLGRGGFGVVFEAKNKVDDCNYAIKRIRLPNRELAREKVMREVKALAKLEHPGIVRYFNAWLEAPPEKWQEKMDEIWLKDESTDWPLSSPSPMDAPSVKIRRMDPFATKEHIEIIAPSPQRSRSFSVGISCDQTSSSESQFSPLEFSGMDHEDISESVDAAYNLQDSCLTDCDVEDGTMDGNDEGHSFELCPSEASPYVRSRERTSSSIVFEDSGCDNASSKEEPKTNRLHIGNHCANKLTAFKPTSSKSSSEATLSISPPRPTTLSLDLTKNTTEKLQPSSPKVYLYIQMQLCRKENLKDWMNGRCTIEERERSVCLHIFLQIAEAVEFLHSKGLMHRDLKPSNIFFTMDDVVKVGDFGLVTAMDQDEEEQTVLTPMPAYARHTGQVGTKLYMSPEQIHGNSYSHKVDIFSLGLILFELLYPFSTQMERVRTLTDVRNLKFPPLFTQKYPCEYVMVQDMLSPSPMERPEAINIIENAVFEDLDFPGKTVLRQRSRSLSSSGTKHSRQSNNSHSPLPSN
The conditions noted are these: EIF2AK3, 10 uM; for remaining activity at 10 µM: read-out: % Enzyme Activity (relative to DMSO controls).

In assay [3] the target is T3, 382 unique human kinases (Homo sapiens, UniProt Q96BR1).
T3 construct: purchased Reaction Biology (HotSpot contract assay)
T3 sequence (Q96BR1 1-496): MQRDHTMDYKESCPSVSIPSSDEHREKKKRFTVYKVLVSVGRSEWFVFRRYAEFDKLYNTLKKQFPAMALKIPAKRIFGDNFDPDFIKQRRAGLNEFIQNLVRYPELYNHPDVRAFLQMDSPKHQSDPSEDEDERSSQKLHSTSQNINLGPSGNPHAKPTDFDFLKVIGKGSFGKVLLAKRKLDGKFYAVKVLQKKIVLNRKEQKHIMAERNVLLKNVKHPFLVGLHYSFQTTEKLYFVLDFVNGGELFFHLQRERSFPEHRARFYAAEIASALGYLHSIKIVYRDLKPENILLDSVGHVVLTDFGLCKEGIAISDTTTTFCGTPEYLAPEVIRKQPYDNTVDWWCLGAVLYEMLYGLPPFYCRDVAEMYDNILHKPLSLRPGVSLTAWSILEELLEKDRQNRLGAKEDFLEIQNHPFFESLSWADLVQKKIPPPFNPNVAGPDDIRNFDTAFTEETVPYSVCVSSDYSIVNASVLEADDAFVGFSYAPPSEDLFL
The conditions noted are these: SGK3/SGKL, 10 uM; for remaining activity at 10 µM: read-out: % Enzyme Activity (relative to DMSO controls).

Regarding `CC(C)c1cc(-c2n[nH]c(=O)n2-c2ccc3c(ccn3C)c2)c(O)cc1O` [Ganetespib (STA9090)], the remaining activity at 10 µM on 382 unique human kinases [1] turned out to be 65.3%.

For the compound `CC(C)c1cc(-c2n[nH]c(=O)n2-c2ccc3c(ccn3C)c2)c(O)cc1O` [Ganetespib], the remaining activity at 10 µM on 382 unique human kinases [2] and at 382 unique human kinases [3] was 101% in each case.

As to `CCNC(=O)c1noc(-c2cc(C(C)C)c(O)cc2O)c1-c1ccc(CN2CCOCC2)cc1` [Luminespib (AUY-922)], at 382 unique human kinases [1], the “% Enzyme Activity (relative to DMSO controls)” value stood at 99.65% and the remaining activity at 10 µM stood at 100%.

`CCNC(=O)c1noc(-c2cc(C(C)C)c(O)cc2O)c1-c1ccc(CN2CCOCC2)cc1` [Luminespib]: on 382 unique human kinases [2], the “% Enzyme Activity (relative to DMSO controls)” value turned out to be 103.58% and the remaining activity at 10 µM is 104%. Moreover, on 382 unique human kinases [3], the “% Enzyme Activity (relative to DMSO controls)” value is on record as 105.88% and the remaining activity at 10 µM worked out at 106%.
